Experimental data reported in patent publication US20070060558A1 (PALUMED S.A., priority 2004, published 2007).
Converted amounts (≈) assume the structure as drawn. Where two headings read alike, the source gives them in different places.

How the values were obtained:
C. difficile CIP 104282 = test: Antibacterial activity (MIC); type: cell-based, Clostridium difficile; conditions: Clostridioides difficile, CIP104282; C. difficile CIP 104282; read-out: MIC
[1] = tested on: S. pneumoniae PSSP CQI 201; test: Antibacterial activity (MIC); type: cell-based, Streptococcus pneumoniae; conditions: Streptococcus pneumoniae; S. pneumoniae PSSP CQI 201; read-out: MIC
[2] = tested on: Staphylococcus aureus MSSA CIP 4.83; test: Antibacterial activity (MIC/MBC); type: cell-based; conditions: Staphylococcus aureus, S. aureus MSSA CIP 4.83; for MBC: read-out: MBC; for MIC: read-out: MIC
[3] = Stability in solution at pH 7 (HPLC purity over time); type: physicochemical; conditions: pH 7, 37° C.
Experimental: (§1) The stability of the aminoquinoline-cephalosporin_hybrid molecules given as examples was determined in solution at 37° C., at physiological pH (pH 7, phosphate buffer/acetonitrile, 75/25 v/v) and at acidic pH (pH 1, 0.1 M HCl/ethanol, 70/30 v/v) by high pressure liquid chromatography coupled to a UV-visible detector (Beckman Coulter ODS C18 column, 5 μm, 4.6×250 mm; eluents: A: 0.1% TFA, B: CH3CN/H2O 90/10 0.1% TFA, gradient: from 10% to 100% of B in 30 minutes, and then 100% of B for 10 minutes, flow rate 1 mL/minutes, λ=254 nm, volume injected: 10 μL).

H. influenzae CIP 102514 = test: Antibacterial activity (MIC/MBC); type: cell-based, Haemophilus influenzae; conditions: Haemophilus influenzae, CIP102514
[4] = tested on: S. pneumoniae PRSP CIP 104471; test: Antibacterial activity (MIC/MBC); type: cell-based, Streptococcus pneumoniae; conditions: Streptococcus pneumoniae; for MIC: read-out: MIC
[5] = tested on: E. faecalis VRE CIP 104676; test: Antibacterial activity (MIC/MBC); type: cell-based, Enterococcus faecalis; conditions: Enterococcus faecalis, E. faecalis VRE CIP 104676; for MIC: read-out: MIC
[6] = tested on: S. pneumoniae PRSP clinical isolate; test: Antibacterial activity (MIC/MBC); type: cell-based, Streptococcus pneumoniae; conditions: Streptococcus pneumoniae; for MIC: PRSP, read-out: MIC
[7] = Stability in solution at pH 1 (HPLC purity over time); type: physicochemical; conditions: pH 1, 37° C.
Experimental: as §1

M. catarrhalis CIP73.21T = test: Antibacterial activity (MIC/MBC); type: cell-based; conditions: Moraxella catarrhalis
[8] = tested on: Staphylococcus aureus MSSA 53.154; test: Murine experimental septicaemia, in vivo efficacy; parameters: species or system mice; conditions: sc, mice, subcutaneously at 1 and 6 h post infection, survival on day 9, hybrid molecules formulated in water as their sodium salt, read-out: ED50
Experimental: Experimental septicaemia was induced in mice as follows. Briefly, male Swiss OF1 mice (IFFA CREDO-Charles River) weighing 18 to 20 grams were infected intraperitoneally with 0.5 mL of a bacterial suspension containing 8.5×10^7 cfu of Staphylococcus aureus MSSA 53.154 (Institut Pasteur). The hybrid molecules were administered subcutaneously at 1 and 6 h post infection. Control and treatment groups at each dose were composed of seven mice. All the infected but untreated control mice died within 9 days. The 50% effective dose (ED50) values were calculated by a computerized program (GraphPad) from the survival rates on day 9 after infection.

S. pyogenes CIP 56.41T = test: Antibacterial activity (MIC/MBC); type: cell-based, Streptococcus pyogenes; conditions: Streptococcus pyogenes, CIP56, S. pyogenes CIP 56.41T; for MIC: read-out: MIC
[9] = tested on: S. pneumoniae PSSP CIP 6.92; test: Antibacterial activity (MIC/MBC); type: cell-based; conditions: Streptococcus pneumoniae, CIP6
[10] = H. influenzae CIP 102514, read-out: MBC
[11] = H. influenzae CIP 102514, read-out: MIC

| Compound | MBC [2] [µg/mL] | MIC [2] [µg/mL] | Purity of the hybrid molecules (as a percentage) as a function of time (hours) ([3]; time 0 h) [%] | Purity of the hybrid molecules (as a percentage) as a function of time (hours) ([3]; time 1 h) [%] | Purity of the hybrid molecules (as a percentage) as a function of time (hours) ([3]; time 2 h) [%] | Purity of the hybrid molecules (as a percentage) as a function of time (hours) ([3]; time 4 h) [%] | Purity of the hybrid molecules (as a percentage) as a function of time (hours) ([3]; time 6 h) [%] | Purity of the hybrid molecules (as a percentage) as a function of time (hours) ([3]; time 8 h) [%] | Purity of the hybrid molecules (as a percentage) as a function of time (hours) ([3]; time 15 h) [%] | Purity of the hybrid molecules (as a percentage) as a function of time (hours) ([3]; time 24 h) [%] | MBC (H. influenzae CIP 102514; [10]) [µg/mL] | MIC (H. influenzae CIP 102514; [11]) [µg/mL] | MBC [4] [µg/mL] | MIC [4] [µg/mL] | MBC [5] [µg/mL] | MIC [5] [µg/mL] | MBC [6] [µg/mL] | MIC [6] [µg/mL] | MBC (H. influenzae CIP 102514) [µg/mL] | MIC (H. influenzae CIP 102514) [µg/mL] | further results |
| --- | --- | --- | --- | --- | --- | --- | --- | --- | --- | --- | --- | --- | --- | --- | --- | --- | --- | --- | --- | --- | --- |
| CC(=O)NC[C@H]1CN(c2ccc(N3CCOCC3)c(F)c2)C(=O)O1 [Linezolid, reference compound] |  |  |  |  |  |  |  |  |  |  |  |  |  |  |  |  |  |  |  |  | MIC (C. difficile CIP 104282): 0.16 µg/mL (≈ 0.474 µM); MIC [1]: 1.25 µg/mL (≈ 3.71 µM) |
| CC(=O)OCC1=C(C(=O)O)N2C(=O)[C@@H](NC(=O)C3CCN(c4ccnc5cc(Cl)ccc45)CC3)[C@H]2SC1.Cl [PA 1074] | 1.56 | 0.78 | 100 | 100 | 100 | 100 | 100 | 97 | 88 | 87 | > 50 | 50 | 50 | 25 | > 50 | 50 | 50 | 25 |  |  |  |
| CC(=O)OCC1=C(C(=O)O)N2C(=O)[C@@H](NC(=O)CNc3ccnc4cc(Cl)ccc34)[C@H]2SC1.Cl [PA 1089, (6R,7R)-3-Acetoxymethyl-7-[2-(7-chloroquinolin-4-ylamino)-acetylamino]-8-oxo-5-thia-1-aza-bicyclo[4.2.0]oct-2-ene-2-carboxylic acid hydrochloride] | 0.39 | 0.2 | 100 | 100 | 100 | 100 | 98 | 97 | 92 | 83 | > 50 | 3.12 | 0.39 | 0.39 | 12.5 | 6.25 | 0.39 | 0.39 |  |  | Purity of the hybrid molecules (as a percentage) as a function of time (hours) ([7]; time 0 h): 100%; Purity of the hybrid molecules (as a percentage) as a function of time (hours) ([7]; time 1 h): 96%; Purity of the hybrid molecules (as a percentage) as a function of time (hours) ([7]; time 2 h): 88%; Purity of the hybrid molecules (as a percentage) as a function of time (hours) ([7]; time 4 h): 81%; Purity of the hybrid molecules (as a percentage) as a function of time (hours) ([7]; time 24 h): 24% |
| CC(=O)OCC1=C(C(=O)O)N2C(=O)[C@@H](NC(=O)CNc3ccnc4cc(C(F)(F)F)ccc34)[C@H]2SC1 [PA 1100, (6R,7R)-3-Acetoxymethyl-7-[2-(7-trifluoromethylquinolin-4-ylamino)-acetylamino]-8-oxo-5-thia-1-aza-bicyclo[4.2.0]oct-2-ene-2-carboxylic acid] | 25 (≈ 47.7 µM) | 0.2 (≈ 0.381 µM) |  |  |  |  |  |  |  |  |  |  | 0.78 (≈ 1.49 µM) | 0.2 (≈ 0.381 µM) | 25 (≈ 47.7 µM) | 12.5 (≈ 23.8 µM) | 0.39 (≈ 0.744 µM) | 0.39 (≈ 0.744 µM) | 25 (≈ 47.7 µM) | 0.78 (≈ 1.49 µM) | MBC (M. catarrhalis CIP73.21T): 1.56 µg/mL (≈ 2.97 µM); MIC (M. catarrhalis CIP73.21T): 0.78 µg/mL (≈ 1.49 µM); ED50 [8]: 0.16 mg/kg; MBC (S. pyogenes CIP 56.41T): 0.003 µg/mL (≈ 0.00572 µM); MIC (S. pyogenes CIP 56.41T): 0.003 µg/mL (≈ 0.00572 µM); MBC [9]: 0.006 µg/mL (≈ 0.0114 µM); MIC [9]: 0.006 µg/mL (≈ 0.0114 µM) |
| CC(=O)OCC1=C(C(=O)O)N2C(=O)[C@@H](NC(=O)CNc3cc(C)nc4ccccc34)[C@H]2SC1 [PA 1101, (6R,7R-3-Acetoxymethyl-7-[2-2-methylquinolin-4-ylamino)acetylamino]-8-oxo-5-thia-1-aza-bicyclo[4.2.0]oct-2-ene-2-carboxylic acid] | 25 (≈ 53.1 µM) | 0.2 (≈ 0.425 µM) |  |  |  |  |  |  |  |  |  |  | 0.78 (≈ 1.66 µM) | 0.2 (≈ 0.425 µM) | 25 (≈ 53.1 µM) | 25 (≈ 53.1 µM) | 0.39 (≈ 0.829 µM) | 0.2 (≈ 0.425 µM) | 12.5 (≈ 26.6 µM) | 1.56 (≈ 3.32 µM) | MBC (M. catarrhalis CIP73.21T): 0.78 µg/mL (≈ 1.66 µM); MIC (M. catarrhalis CIP73.21T): 0.78 µg/mL (≈ 1.66 µM); ED50 [8]: 0.13 mg/kg; MBC (S. pyogenes CIP 56.41T): 0.0015 µg/mL (≈ 0.00319 µM); MIC (S. pyogenes CIP 56.41T): 0.0015 µg/mL (≈ 0.00319 µM); MBC [9]: 0.006 µg/mL (≈ 0.0128 µM); MIC [9]: 0.006 µg/mL (≈ 0.0128 µM) |
